Assay results: patent US4160839A, “Carbamyltriazole insecticides” (priority 1976, dated 1979)

Key:
[1] = system: insects; assay: Insecticidal activity (general statement); settings: statement in words
[2] = system: Mexican bean beetle (MBB) larvae; assay: Spray test, Mexican bean beetle (MBB) larvae on bean leaves; assay type: in vivo; settings: approx. 48 h after spraying
Procedure: (§1) Three 5 oz paper cups containing Henderson dwarf lima bean plants and one 5 oz paper cup containing Orange Gem nasturtiums, all growing in vermiculite, are placed on a turntable and sprayed to thorough wetness with 25 ml of a solution of the candidate chemical at the appropriate concentration. Nasturtiums were already infested with 50-100 bean aphids (BA). A bean plant in one paper cup was already infested with 50-100 two-spotted mites (TSM). Leaves from the two remaining bean plants are removed following spraying and placed in disposable petri dishes with 5 southern armyworm (SA) larvae in one petri dish, and 5 Mexican bean beetle (MBB) larvae in the other petri dish. The rating is done approximately 48 hours after spraying as follows:
(§2) So as to obtain more meaningful results, all tests are performed at the same time of day, whenever possible, usually in the forenoon. Temperature,illumination and humidity are the same in all tests. Atmospheric pressure is not controlled.
(§3) Results obtained with the novel insecticides of this invention at various concentrations of active chemical are tabulated below. The ratings given are for averages of three or more replicates. The oral lethal dose for 50 percent kill of laboratory rats is also recorded in the table. In conducting the toxicity tests on rats, 0.01 g of active chemical per ml in corn oil is employed as an additive to the diet of the animals.

[3] = system: southern armyworm (SA) larvae; assay: Spray test, southern armyworm (SA) larvae on bean leaves; assay type: in vivo; settings: approx. 48 h after spraying
Procedure: as §1, §2, §3

[4] = system: bean aphids (BA); assay: Spray test, bean aphids (BA) on nasturtiums; assay type: in vivo; settings: approx. 48 h after spraying
Procedure: as §1, §2, §3

[5] = system: two-spotted mites (TSM); assay: Spray test, two-spotted mites (TSM) on bean plants; assay type: in vivo; settings: 500 ppm; approx. 48 h after spraying
Procedure: as §1, §2, §3

[6] = system: Southern Corn Rootworm (SCR); assay: Southern Corn Rootworm (SCR) soil treatment test, root feeding damage on corn; assay type: in vivo; parameters: scale not given here; settings: nine days after treatment
Procedure: Three 5 oz paper cups planted each with one kernel of DeKalb XL-361 corn are treated two days after planting with 10 ml of a 125 ppm solution of the candidate compound. Compounds with high efficacy are treated at lower concentrations. The experiment is a 4×5 factorial in a randomized complete block design with three replications. The tests are evaluated nine days after treatment. The roots are inspected under a dissecting microscope and rated as follows:
as §2, §3

[7] = Oral toxicity test on laboratory rats; settings: rat, in vivo, in corn oil as additive to the diet, read-out: LD50 (oral lethal dose for 50 percent kill of laboratory rats)
Procedure: as §3

C#CCSc1nc(C2CCCCC2)nn1C(=O)N(C)C [1-N,N-dimethylcarbamyl-3-cyclohexyl-5-propargylthio-1,2,4-triazole]
insecticidal activity [1]: virtually useless as insecticides

C#CCSc1nc(C(C)(C)C)nn1C(=O)N(C)C [R=2-propynyl, R'=tert.butyl]
MBB rating (larvae dead) ([2]; 4 ppm): 0 (no larvae dead) | MBB rating (larvae dead) ([2]; 8 ppm): 0 (no larvae dead) | MBB rating (larvae dead) ([2]; 15 ppm): 4 (76-99% larvae dead) | MBB rating (larvae dead) ([2]; 31 ppm): 5 (100% larvae dead) | MBB rating (larvae dead) ([2]; 62 ppm): 5 (100% larvae dead) | MBB rating (larvae dead) ([2]; 125 ppm): 5 (100% larvae dead) | MBB rating (larvae dead) ([2]; 250 ppm): 5 (100% larvae dead) | MBB rating (larvae dead) ([2]; 500 ppm): 5 (100% larvae dead) | SA rating (larvae dead) ([3]; 15 ppm): 0 (no larvae dead) | SA rating (larvae dead) ([3]; 31 ppm): 0 (no larvae dead) | SA rating (larvae dead) ([3]; 62 ppm): 0 (no larvae dead) | SA rating (larvae dead) ([3]; 125 ppm): 2 (26-50% larvae dead) | SA rating (larvae dead) ([3]; 250 ppm): 5 (100% larvae dead) | SA rating (larvae dead) ([3]; 500 ppm): 5 (100% larvae dead) | BA rating (dead) ([4]; 4 ppm): 5 (100% dead) | BA rating (dead) ([4]; 8 ppm): 5 (100% dead) | BA rating (dead) ([4]; 15 ppm): 5 (100% dead) | BA rating (dead) ([4]; 31 ppm): 5 (100% dead) | BA rating (dead) ([4]; 62 ppm): 5 (100% dead) | BA rating (dead) ([4]; 125 ppm): 5 (100% dead) | BA rating (dead) ([4]; 250 ppm): 5 (100% dead) | BA rating (dead) ([4]; 500 ppm): 5 (100% dead) | TSM rating (dead adults) [5]: 1 (1-25% dead adults) | SCR Rating (root feeding damage) ([6]; 6 ppm): 3.5 | SCR Rating (root feeding damage) ([6]; 12 ppm): 4.5 | LD50 [7]: > 50 mg/kg
